Source: patent US20240109934A1, “ANTIBIOTICS WITH IMPROVED DRUG RESISTANCE PROFILE” (priority 2021, published 2024)
Converted amounts (≈) assume the structure as drawn. Like-named read-outs stand apart in the source and are kept apart here.

What was measured:
[1] = test system: S. aureus ATCC 29213; experiment: MIC by micro-dilution broth method (CLSI); format: cell-based; conditions: for Antibacterial activity relative to FA: S. aureus ATCC 29213 MIC; for MIC: Staphylococcus aureus, ATCC29213, WT S. aureus ATCC 29213, n = 3, read-out: MIC Without Human Serum
[2] = test system: human foreskin fibroblasts (HFF-1); experiment: Cell viability, Alamar Blue assay; format: cell-based; conditions: 72 h incubation, error SEM n = 2, read-out: IC50, Mammalian Toxicity in HFF-1
Description: Cell Culture. HFF-1 cells were obtained from ATCC. HFF-1 cells were grown in DMEM with 15% fetal bovine serum (Gemini Benchmark, Cat #100-106), 100 U/mL penicillin, and 100 μg/mL streptomycin. All cells were cultured at 37° C. in a 5% CO2 environment. Media was prepared by the University of Illinois School of Chemical Sciences Cell Media Facility.
Cell Viability. Cells were harvested, seeded in a 96 well-plate and allowed to adhere. Cells were treated with investigational compounds in DMSO (1% final concentration). Cells were incubated for 72 h before viability was assessed by the Alamar Blue Assay. Raptinal ([…]) was used as a dead control.

[3] = test system: S. aureus 29213; experiment: MIC shift with 50% human serum; format: cell-based; conditions: S. aureus 29213, 50% human serum vs none
Description: Antimicrobial Susceptibility Tests. Susceptibility testing was performed in biological triplicate, using the micro-dilution broth method as outlined by the Clinical and Laboratory Standards Institute. […] Human serum (Ultrafiltrate, unspecified gender, 30K Dalton membrane filtered) was purchased from BioIVT (Hicksville, NY).

[4] = test system: S. aureus ATCC 29213; experiment: Resistance frequency, large inoculum method; format: cell-based
Description: Selection of Resistant Mutants. Resistant mutants were selected via the large inoculum method. Briefly, S. aureus ATCC 29213 (1×10^9 CFU) were plated on 100 mm plates of LB agar containing 4, 2, 1, 0.5, and 0.25 μg/mL.

[5] = Mouse liver microsome stability assay; format: in vitro ADME; conditions: 3 h at 37° C., LC-MS/MS, ± SEM of 3 biological replicates
Description: Mouse Liver Microsome Stability Assay. A mixture of PBS (pH 7.4), NADPH regenerating system solution A (Corning Life Sciences), and NADPH regenerating system solution B (Corning Life Sciences) was incubated at 37° C. in a shaking incubator for 5 min. Next, compound was added in DMSO (final concentration 50 μM, 0.5% DMSO) before ice-cold mouse liver microsomes (Thermo Fisher, male CD-1 mice, pooled) were added (final protein concentration of 1 mg/mL). An aliquot was immediately removed, quenched with an equal volume of 100 μM internal standard and centrifuged at 13,000 rcf for 3 min. The reactions were incubated at 37° C. in a shaking incubator for 3 h. A second aliquot was removed and quenched. Samples were analyzed with the 5500 QTRAP LC/MS/MS system (Sciex, Framingham, MA) in Metabolomics Lab of Roy J. Carver Biotechnology Center, University of Illinois at Urbana-Champaign. Software Analyst 1.6.2 was used for data acquisition and analysis. The 1200 series HPLC system (Agilent Technologies, Santa Clara, CA) includes a degasser, an autosampler, and a binary pump. The LC separation was performed on an Agilent Sb-Aq column (4.6×50 mm, […]) with mobile phase A (0.1% formic acid in water) and mobile phase B (0.1% formic acid in acetonitrile). The flow rate was 0.3 mL/min. The linear gradient was as follows: 0-3 min, 100% A; 10-16 min, 5% A; 16.5-22 min, 100% A. The autosampler was set at 10° C. The injection volume was 1 μL. Mass spectra were acquired under both positive (ion spray voltage was +5500 V) and negative (ion spray voltage was −4500 V) electrospray ionization (ESI). The source temperature was 450° C. The curtain gas, ion source gas 1, and ion source gas 2 were 33, 65, and 60 psi, respectively. Multiple reaction monitoring (MRM) was used for quantitation.

[6] = Mouse MTD / tolerability; conditions: mouse, in vivo, ip, 50 mg/kg
Description: The protocol was approved by the IACUC at the University of Illinois at Urbana-Champaign (Protocol Number: 16144 and 19181). In these studies, 10- to 12-week-old female C57BL/6 mice purchased from Charles River were used. The maximum tolerated dose (MTD) of single compound was determined first. […] All the mice were monitored for signs of toxicity for 2 weeks. For multiple doses, the compound was given by daily IP for 4 consecutive days, and mice were monitored for signs of toxicity for 1 month. MTD was the highest dosage with acceptable toxicity (e.g., <20% weight loss).

[7] = head-to-head with FA, 2×-32× the MIC

SMILES | Antibacterial activity relative to FA [1] | MIC [1] | IC50 [2] | IC50 ([2]; Homo sapiens, HFF-1, 72 h) | Fold Change Increase in MIC with 50% Human Serum [3] | Resistance frequency relative to FA [4, 7] | Metabolic Stability in Mouse Liver Microsomes (percent remaining) [5] | Resistance frequency relative to FA ([4]; only at 32× the MIC) | Tolerability [6]
CC(=O)O[C@H]1C[C@@]2(C)[C@@H](C[C@@H](O)[C@H]3[C@@]4(C)CC[C@@H](O)[C@@H](C)[C@@H]4CC[C@@]32C)/C1=C(\CCC=C(Br)Br)C(=O)O [Compound 16, (Z)-2-((3R,4S,5S,8S,9S,10S,11R,13R,14S,16S)-16-acetoxy-3,11-dihydroxy-4,8,10,14-tetramethylhexadecahydro-17H-cyclopenta[a]phenanthren-17-ylidene)-6,6-dibromohex-5-enoic acid] | equipotent activity to FA | 0.125 µg/mL (≈ 0.193 µM) | 75 ± 3 µM | > 50 µM | 32X | worse resistance frequency relative to FA | 88 ± 2% |  | 
CC(=O)O[C@H]1C[C@@]2(C)[C@@H](C[C@@H](O)[C@H]3[C@@]4(C)CC[C@@H](O)[C@@H](C)[C@@H]4CC[C@@]32C)/C1=C(\CCC=C1CCCCC1)C(=O)O [Compound 26, (Z)-2-((3R,4S,5S,8S,9S,10S,11R,13R,14S,16S)-16-acetoxy-3,11-dihydroxy-4,8,10,14-tetramethylhexadecahydro-17H-cyclopenta[a]phenanthren-17-ylidene)-5-cyclohexylidenepentanoic acid] | equipotent activity to FA | 0.125 µg/mL (≈ 0.225 µM) | 53 ± 4 µM | > 50 µM | 16X | improvement in resistance frequency relative to FA | 61 ± 1% | improvement | 
CC(=O)O[C@H]1C[C@@]2(C)[C@@H](C[C@@H](O)[C@H]3[C@@]4(C)CC[C@@H](O)[C@@H](C)[C@@H]4CC[C@@]32C)/C1=C(\CCC=C(C)C)C(=O)O [Sodium fusidate, reference compound] |  |  |  |  |  |  |  |  | well tolerated
